# Results reported in US10004697B2, “In vivo sperm selection for treating male infertility” (M Pharmaceutical USA Inc., priority 2016, dated 2018).
# System: women
# Assay: Topical menthol applied to the vulva: increase of vaginal lubrication in women
# Type: in vivo, human
# Conditions: applied to the vulva (including the clitoris)
# Text: Abnormal sperm quality in combination with inadequate vaginal lubrication can cause infertility. The menthol-stimulated vaginal plasma transudate 30 that is generated by use of the inventive method compensates for lubrication insufficiency that may be present in the female sexual partner of the infertile male. […] Since most infertility is a combination of female and male factors, the production of this vaginal transudate 30 can aid conception rates of both infertile males and females. […] Therefore the sperm, even if they somehow are able to be capacitated, have little or no protective and nourishing substrate in which they can swim up through the external os 24 and into the cervical canal 21. The odds of fertilization are thus extremely low.
compound,measurement,setting,value
CC1CCC(C(C)C)C(O)C1 (centres unmarked) [menthol],women in whom lubrication is increased,all women,80%
same,women in whom lubrication is increased,women over 35,90%
